In publication PMC6961345 (Antiviral Chemistry & Chemotherapy, 2018):
Where “and” joins values, the source holds several entries; their conditions need not be identical. Equal entries are not always repeated. Entries after “also recorded” stand apart in the source; their conditions may differ. Where two headings read alike, the source gives them in different places.

Experiments:
[1] = tested on: A/Brisbane/59/2007 (H1N1); assay: microbe, parasite or virus in culture; assay type: cell-based, influenza A virus; conditions: for EC90: two independent assays
A/Perth/16/2009 (H3N2) = assay: microbe, parasite or virus in culture; assay type: cell-based, influenza A virus; conditions: for EC90: two independent assays
[2] = tested on: influenza A/Brisbane/59/2007 (H1N1) virus; assay type: cell-based
A/Anhui/1/2013 (H7N9) = assay: microbe, parasite or virus in culture; assay type: cell-based, influenza A virus; conditions: for EC90: Influenza A virus, H7N9, 48 h
B/Texas/06/2011 = assay: microbe, parasite or virus in culture; assay type: cell-based, influenza B virus; conditions: for EC90: two independent assays
[3] = tested on: A/Tennessee/1-560/2009 (H1N1)pdm09; assay: microbe, parasite or virus in culture; assay type: cell-based, influenza A virus; conditions: for EC90: two independent assays
[4] = tested on: A/Vietnam/1203/2004 (H5N1); assay: microbe, parasite or virus in culture; assay type: cell-based, influenza A virus; conditions: for EC90: Influenza A virus, H5N1, 48 h
MDCK cells = conditions: 100 µM enisamium iodide, 24 h, n = 3 wells
[5] = tested on: influenza A/Brisbane/59/2007 (H1N1) virus; assay type: cell-based; remark: listed apart in the source
[6] = tested on: segment 7 viral, complementary, and messenger RNA (A/Brisbane/59/2007); assay type: cell-based, influenza A virus; conditions: 24 h incubation
[7] = tested on: viral M gene RNA (A/Brisbane/59/2007); assay type: cell-based, influenza A virus; conditions: 8, 12, 18 and 24 h
[8] = tested on: influenza A and B viruses; assay: microbe, parasite or virus in culture; assay type: cell-based
[9] = tested on: Undifferentiated NHBE cells; conditions: 2000 µM enisamium chloride, 24 h
[10] = tested on: HA protein (A/Brisbane/59/2007); assay type: cell-based, influenza A virus
[11] = tested on: Differentiated NHBE cells; conditions: for enisamium uptake: 1000 µM, 2000 µM (Figure 2 legend)
[12] = tested on: influenza A/Brisbane/59/2007 (H1N1) virus; assay: Time-of-addition experiment in dNHBE cells; assay type: cell-based
[13] = CC50 divided by EC90, dNHBE cells

CCC(CC)O[C@@H]1C=C(C(=O)O)C[C@H](N)[C@H]1NC(C)=O [oseltamivir carboxylate]
EC90 ([1]; Influenza A virus, H1N1, 48 h): < 1 µM | EC90 (A/Perth/16/2009 (H3N2); Influenza A virus, H3N2, 48 h): < 1 µM | inhibition of virus replication at 24 and 48 h postinfection [2]: inhibited virus replication | EC90 (A/Anhui/1/2013 (H7N9)): < 1 µM | EC90 (B/Texas/06/2011; Influenza B virus, 48 h): < 1 µM | EC90 ([3]; Influenza A virus, H1N1, 48 h): < 1 µM | EC90 [4]: < 1 µM

C[n+]1ccc(C(=O)NCc2ccccc2)cc1 [enisamium, N-methyl-4-benzylcarbamidopyridinium]
Selectivity index [1, 13]: 23 | EC90 ([1]; Influenza A virus, H1N1, 48 h): 412 µM | EC90 [1]: 466 µM | Selectivity index (A/Perth/16/2009 (H3N2); [13]): 30 | EC90 (A/Perth/16/2009 (H3N2); Influenza A virus, H3N2, 48 h): 287 µM | EC90 (A/Perth/16/2009 (H3N2)): 375 µM | antiviral effect at lower concentrations ([2]; 100 and 500 µM, 24 h pretreatment): did not appreciably show an antiviral effect | intracellular concentration required for achieving an antiviral activity ([2]; dNHBE cells): exceeds 1885 ng/10^6 cells | Concentration of enisamium, Intracellular (mean ± SD) (MDCK cells): 27.9 ± 1.4 ng/10^6 cells | Antiviral activity in MDCK cells (plaque number/size, virus titers) [5]: no antiviral activity was found; also recorded: did not reduce; also recorded: ineffective | inhibition of viral RNA synthesis [6]: nearly a complete inhibition | viral M gene RNA versus untreated cells [7]: lower | Selectivity index (A/Anhui/1/2013 (H7N9)): 24 | EC90 (A/Anhui/1/2013 (H7N9)): 410 µM | EC90 ([8]; Influenza A virus, read-out: 90% effective (EC90) concentration range): 157 to 439 µM | reduction of virus titers ([8]; at certain concentrations, dNHBE cells): 100 fold | Selectivity index values (CC50 divided by EC90) ([8]; range over all viruses tested, dNHBE cells): 23- to 64 and > 20 | Selectivity index (B/Texas/06/2011; [13]): 64 | EC90 (B/Texas/06/2011; Influenza B virus, 48 h): 105 µM | EC90 (B/Texas/06/2011): 209 µM | Selectivity index [3, 13]: 34 | EC90 ([3]; Influenza A virus, H1N1, 48 h): 233 µM | EC90 [3]: 351 µM | Concentration of enisamium, Intracellular (mean ± SD) ([9]; n = 3 wells): 4110 ± 830 ng/10^6 cells | Permeability (mean ± SD) ([9]; ratio intracellular to initial input): 0.85 ± 0.21% | Selectivity index [4]: 25 | EC90 [4]: 400 µM | amount of detectable HA protein [10]: markedly decreased | Intracellular concentration of enisamium (mean ± SD) ([11]; 10 µM enisamium, 24 h): 36.8 ng/10^6 cells and 36.8 ± 3.9 ng/10^6 cells | Permeability (mean ± SD) ([11]; 10 µM enisamium, 24 h): 1.40 ± 0.15% | Intracellular concentration of enisamium (mean ± SD) ([11]; 50 µM enisamium, 24 h): 213 ng/10^6 cells and 213 ± 34 ng/10^6 cells | Permeability (mean ± SD) ([11]; 50 µM enisamium, 24 h): 1.62 ± 0.26% | Intracellular concentration of enisamium (mean ± SD) ([11]; 100 µM enisamium, 24 h): 410 ng/10^6 cells and 410 ± 77 ng/10^6 cells | Permeability (mean ± SD) ([11]; 100 µM enisamium, 24 h): 1.56 ± 0.29% | Intracellular concentration of enisamium (mean ± SD) ([11]; 500 µM enisamium, 24 h): 1727 ng/10^6 cells and 1727 ± 108 ng/10^6 cells | Permeability (mean ± SD) ([11]; 500 µM enisamium, 24 h): 1.31 ± 0.08% | Intracellular concentration of enisamium (mean ± SD) ([11]; 1000 µM enisamium, 24 h): 3009 ng/10^6 cells and 3009 ± 132 ng/10^6 cells | Permeability (mean ± SD) ([11]; 1000 µM enisamium, 24 h): 1.15 ± 0.05% | Concentration of enisamium, Intracellular (mean ± SD) ([11]; 2000 µM enisamium chloride, 24 h, n = 3 wells): 10,700 ± 1900 ng/10^6 cells | Permeability, all concentrations tested ([11]; 10-1000 µM enisamium, 24 h): 1.1–1.6% | enisamium uptake ([11]; exposure 0.25 h): 482 ng/10^6 cells | enisamium uptake ([11]; exposure 24 h): 2732 ng/10^6 cells | Permeability (mean ± SD) ([11]; ratio intracellular to initial input, 2000 µM enisamium chloride, 24 h): 1.9% and 1.90 ± 0.20% | inhibition of virus replication (virus yield reduction) [12]: 2.3–2.6 log10TCID50/ml | reductions in virus titers [12]: ≥ 100 fold | virus yield reduction [12]: 1.3 log10TCID50/ml and 0.7 log10TCID50/ml
